From US20240391899A1, “POTENT AND SELECTIVE INHIBITORS OF IRAK4” (Dana-Farber Cancer Institute, Inc., priority 2021, published 2024)

What was measured:
IRAK4 = target: T1, IRAK4 (Homo sapiens, UniProt Q9NWZ3); test: IRAK4 enzymatic assay (Z'-LYTE, ThermoFisher); format: biochemical; details: 60 minutes at room temperature
T1 construct: purchased ThermoFisher
T1 sequence (Q9NWZ3 1-460): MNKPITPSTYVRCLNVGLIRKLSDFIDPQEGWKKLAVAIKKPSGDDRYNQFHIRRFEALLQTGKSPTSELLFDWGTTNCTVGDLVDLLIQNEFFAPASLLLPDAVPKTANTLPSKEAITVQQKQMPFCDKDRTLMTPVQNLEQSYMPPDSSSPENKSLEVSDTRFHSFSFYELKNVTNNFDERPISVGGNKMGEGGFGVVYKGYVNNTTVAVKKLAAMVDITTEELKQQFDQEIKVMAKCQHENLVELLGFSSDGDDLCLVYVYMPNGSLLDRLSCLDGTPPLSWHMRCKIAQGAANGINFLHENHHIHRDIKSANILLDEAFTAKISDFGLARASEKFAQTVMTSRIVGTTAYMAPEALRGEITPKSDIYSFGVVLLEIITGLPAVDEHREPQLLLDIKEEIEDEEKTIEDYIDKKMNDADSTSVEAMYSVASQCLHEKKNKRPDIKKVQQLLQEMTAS
Experimental: To measure the IC50 values of compounds herein against IRAK4, a Z′-LYTE assay (ThermoFisher) was used. Briefly, 2.5 μL of different concentrations of the compounds in 1% DMSO were added to 2.4 μL kinase buffer (50 mM HEPES pH 7.5, 0.01% BRIJ-35, 10 mM MgCl2, 1 mM EGTA) in each well of a 384-well plate (Corning Cat. #3676). 5 μL of 2×IRAK4/Ser/Thr 07 mixture (prepared in 50 mM HEPES pH 7.5, 0.01% BRIJ-35, 10 mM MnCl2, 2 mM DTT, and 0.02% NaN3) and 2.5 μL of 4×ATP solution (4×ATP, 50 mM HEPES, pH 7.5, 0.01% BRIJ-35, 10 mM MgCl2, 1 mM EGTA) were added to each well. The plate was shaken for 30 seconds, and then incubated at room temperature for 60 minutes. 5 μL of a 1:100000 dilution of Development Reagent A was added to each well. The plate was shaken for 30 seconds and incubated for 60 minutes at room temperature. The plate was subsequently read on a fluorescence plate reader, and the emissions ratio was calculated to determine the ratio of Ser/Thr 07 phosphorylated by the reaction. Emissions Ratio=Coumarin Emission (443 nm)/Flourescein Emission (520 nm).

IRAK1 = target: T2, IRAK1 (Homo sapiens, UniProt P51617); test: IRAK1 enzymatic assay (Adapta Universal Kinase Assay, ThermoFisher); format: biochemical; details: 60 minutes at room temperature
T2 construct: purchased ThermoFisher
T2 sequence (P51617 whole entry): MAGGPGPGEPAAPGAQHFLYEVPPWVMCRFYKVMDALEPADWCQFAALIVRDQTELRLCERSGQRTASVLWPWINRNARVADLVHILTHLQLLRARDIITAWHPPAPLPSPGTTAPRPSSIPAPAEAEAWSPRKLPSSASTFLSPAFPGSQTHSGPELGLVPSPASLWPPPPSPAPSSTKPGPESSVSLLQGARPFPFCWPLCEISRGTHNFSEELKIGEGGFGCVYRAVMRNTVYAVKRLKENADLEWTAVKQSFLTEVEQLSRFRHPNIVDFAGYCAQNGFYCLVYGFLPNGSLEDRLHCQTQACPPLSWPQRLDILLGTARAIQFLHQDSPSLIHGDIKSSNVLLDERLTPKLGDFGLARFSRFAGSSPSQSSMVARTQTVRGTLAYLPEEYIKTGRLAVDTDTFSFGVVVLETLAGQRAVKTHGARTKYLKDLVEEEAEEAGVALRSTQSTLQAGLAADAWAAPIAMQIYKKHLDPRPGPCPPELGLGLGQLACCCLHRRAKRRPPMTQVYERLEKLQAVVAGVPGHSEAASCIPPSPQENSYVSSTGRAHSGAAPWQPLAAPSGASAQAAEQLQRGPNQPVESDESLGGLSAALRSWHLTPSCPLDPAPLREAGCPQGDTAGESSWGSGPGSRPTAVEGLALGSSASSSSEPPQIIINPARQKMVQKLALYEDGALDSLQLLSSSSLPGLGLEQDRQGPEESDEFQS
Experimental: To measure the IC50 values of the compounds herein against IRAK1, the Adapta Universal Kinase Assay (ThermoFisher) was used. Briefly, 100 nL of different concentrations of the compounds in 100% DMSO were added to each well of a 384-well plate (Corning Cat. #4512). 2.4 μL of 30 mM HEPES, 2.5 μL of 4×ATP solution (in water), and 5 μL of 2×IRAK1/Histone H3 (1-20) peptide mixture (prepared in 50 mM HEPES pH 7.5, 0.01% BRIJ-35, 10 mM MgCl2, 1 mM EGTA) were added to each well. The plate was shaken for 30 seconds and centrifuged for 1 minute at 1000×g. The plate was then incubated at room temperature for 60 minutes. 5 μL of Detection Mix was added to each well. The plate was shaken for 30 seconds and centrifuged for 1 minute at 1000×g. The plate was then incubated at room temperature for 60 minutes. The plate was subsequently read on a fluorescence plate reader, and the emissions ratio was calculated to determine the ratio of ATP to ADP. Emissions Ratio=AF647 Emission (665 nm)/Europium Emission (615 nm).

SMILES | IC50 (IRAK4) | IC50 (IRAK1)
CN1CCC(c2cc(NC(=O)c3cccc(-c4ccn[nH]4)n3)n(-c3ccccn3)n2)CC1 [Compound 001, N-(3-(1-Methylpiperidin-4-yl)-1-(pyridin-2-yl)-1H-pyrazol-5-yl)-6-(1H-pyrazol-5-yl)picolinamide] | 4 nM | 8 nM
Cc1ccc(-n2nc(C3CCN(C(C)C)CC3)cc2NC(=O)c2cccc(-c3cn[nH]c3)n2)nc1 [Compound 002, N-(3-(1-isopropylpiperidin-4-yl)-1-(5-methylpyridin-2-yl)-1H-pyrazol-5-yl)-6-(1H-pyrazol-4-yl)picolinamide] | 3 nM | 36 nM
Cc1ccc(-n2nc(C3CCN(C(C)C)CC3)cc2NC(=O)c2cccc(-c3cnsc3)n2)nc1 [Compound 004, N-(3-(1-isopropylpiperidin-4-yl)-1-(5-methylpyridin-2-yl)-1H-pyrazol-5-yl)-6-(isothiazol-4-yl)picolinamide] | 24 nM | 372 nM
Cc1ccc(-n2nc(C3CCN(C(C)C)CC3)cc2NC(=O)c2cccc(-c3cnoc3)n2)nc1 [Compound 006, N-(3-(1-isopropylpiperidin-4-yl)-1-(5-methylpyridin-2-yl)-1H-pyrazol-5-yl)-6-(isoxazol-4-yl)picolinamide] | 6 nM | 15 nM
Cc1ccc(-n2nc(C3CCN(C4COC4)CC3)cc2NC(=O)c2ccccn2)nc1 [Compound 008, N-(1-(5-methylpyridin-2-yl)-3-(1-(oxetan-3-yl)piperidin-4-yl)-1H-pyrazol-5-yl)picolinamide] | 148 nM | 1350 nM
Cc1ccc(-n2nc(C3CCN(C)CC3)cc2NC(=O)c2ccccn2)nc1 [Compound 011, N-(3-(1-methylpiperidin-4-yl)-1-(5-methylpyridin-2-yl)-1H-pyrazol-5-yl)picolinamide] | 170 nM | 835 nM
Cc1ccc(-n2nc(C3CCN(C(C)C)CC3)cc2NC(=O)c2cccc(-c3ccn[nH]3)n2)nc1 [Compound 012, N-(3-(1-isopropylpiperidin-4-yl)-1-(5-methylpyridin-2-yl)-1H-pyrazol-5-yl)-6-(1H-pyrazol-5-yl)picolinamide] | 3 nM | 7 nM
Cc1ccc(-n2nc(C3CCN(C(C)C)CC3)cc2NC(=O)c2cccc(-c3cnn(CC(=O)N(C)C)c3)n2)nc1 [Compound 013, 6-(1-(2-(dimethylamino)-2-oxoethyl)-1H-pyrazol-4-yl)-N-(3-(1-isopropylpiperidin-4-yl)-1-(5-methylpyridin-2-yl)-1H-pyrazol-5-yl)picolinamide] | 45 nM | 718 nM
CNC(=O)Cn1cc(-c2cccc(C(=O)Nc3cc(C4CCN(C(C)C)CC4)nn3-c3ccc(C)cn3)n2)cn1 [Compound 014, N-(3-(1-isopropylpiperidin-4-yl)-1-(5-methylpyridin-2-yl)-1H-pyrazol-5-yl)-6-(1-(2-(methylamino)-2-oxoethyl)-1H-pyrazol-4-yl)picolinamide] | 36 nM | 656 nM
Cc1ccc(-n2nc(C3CCN(C(C)C)CC3)cc2NC(=O)c2cccc(C#N)n2)nc1 [Compound 017, 6-cyano-N-(3-(1-isopropylpiperidin-4-yl)-1-(5-methylpyridin-2-yl)-1H-pyrazol-5-yl)picolinamide] | 9 nM | 90 nM

Other lines, results leading:

IC50 (IRAK4) | IC50 (IRAK1) | SMILES
6 nM | 66 nM | CC(C)N1CCC(c2cc(NC(=O)c3cccc(-c4cn[nH]c4)n3)n(-c3ccccn3)n2)CC1 [Compound 003, N-(3-(1-isopropylpiperidin-4-yl)-1-(pyridin-2-yl)-1H-pyrazol-5-yl)-6-(1H-pyrazol-4-yl)picolinamide]
37 nM | 183 nM | CC(C)N1CCC(c2cc(NC(=O)c3cccc(-c4cnsc4)n3)n(-c3ccccn3)n2)CC1 [Compound 005, N-(3-(1-isopropylpiperidin-4-yl)-1-(pyridin-2-yl)-1H-pyrazol-5-yl)-6-(isothiazol-4-yl)picolinamide]
31 nM | 317 nM | CC(C)N1CCC(c2cc(NC(=O)c3cccc(-c4cnoc4)n3)n(-c3ccccn3)n2)CC1 [Compound 007, N-(3-(1-isopropylpiperidin-4-yl)-1-(pyridin-2-yl)-1H-pyrazol-5-yl)-6-(isoxazol-4-yl)picolinamide]
55 nM | 1650 nM | Cc1ccc(-n2nc(C3CCN(C(C)C)CC3)cc2NC(=O)c2ccccn2)nc1 [Compound 009, N-(3-(1-isopropylpiperidin-4-yl)-1-(5-methylpyridin-2-yl)-1H-pyrazol-5-yl)picolinamide]
43 nM | 1100 nM | CC(C)N1CCC(c2cc(NC(=O)c3ccccn3)n(-c3ccccn3)n2)CC1 [Compound 010, N-(3-(1-isopropylpiperidin-4-yl)-1-(pyridin-2-yl)-1H-pyrazol-5-yl)picolinamide]
39 nM | 828 nM | CC(C)N1CCC(c2cc(NC(=O)c3cccc(-c4cnn(CC(N)=O)c4)n3)n(-c3ccccn3)n2)CC1 [Compound 016, 6-(1-(2-amino-2-oxoethyl)-1H-pyrazol-4-yl)-N-(3-(1-isopropylpiperidin-4-yl)-1-(pyridin-2-yl)-1H-pyrazol-5-yl)picolinamide]
24 nM | 234 nM | CC(C)N1CCC(c2cc(NC(=O)c3cccc(/C=C/C(N)=O)n3)n(-c3ccccn3)n2)CC1 [Compound 018, (E)-6-(3-amino-3-oxoprop-1-en-1-yl)-N-(3-(1-isopropylpiperidin-4-yl)-1-(pyridin-2-yl)-1H-pyrazol-5-yl)picolinamide]
47 nM | 242 nM | CC(C)N1CCC(c2cc(NC(=O)c3cccc(CCC(N)=O)n3)n(-c3ccccn3)n2)CC1 [Compound 019, 6-(3-amino-3-oxopropyl)-N-(3-(1-isopropylpiperidin-4-yl)-1-(pyridin-2-yl)-1H-pyrazol-5-yl)picolinamide]
561 nM | 10000 nM | CC(C)N1CCC(c2cc(NC(=O)c3cccc(N4CCNCC4)n3)n(-c3ccccn3)n2)CC1 [Compound 020, N-(3-(1-isopropylpiperidin-4-yl)-1-(pyridin-2-yl)-1H-pyrazol-5-yl)-6-(piperazin-1-yl)picolinamide]
